Consider 15 molecules from patent US8557998B2, “Benzylpiperizine compound” (Dainippon Sumitomo Pharma Co., Ltd, priority 2008, dated 2013).

Data set [1] addresses T1, CYP2D6 (Homo sapiens, UniProt P10635).
T1 construct: Pooled of Human Liver Microsomes was purchased from Xenotech, LLC; tissue Xenotech, LLC; host or cells: pooled human liver microsomes
Put plainly: CYP2D6 inhibition screening test. The data set is classed as in vitro ADME. To be noted: pooled human liver microsomes, substrate bufuralol, 37° C. 10 min, 1'-hydroxybufuralol by LC-MSMS; read-out: Test Example 3: CYP2D6 Inhibition IC50. As to the method: CYP2D6 Inhibition Screening Test
Bufuralol was purchased from Sigma-Aldrich Corp., and Pooled of Human Liver Microsomes was purchased from Xenotech, LLC.
150 μL of Pooled Human Liver Microsomes (20 mg/ml), 12 mL of a 0.5 M potassium phosphate buffer, 1.2 mL of a 165 mM magnesium chloride solution, and 34.65 mL of distilled water were mixed.
Bufuralol was dissolved at a concentration of 2.0 mM in DMSO and then diluted 200-fold with distilled water.
3-3 Experimental Procedures
1. A 10 mM DMSO solution of a test drug was serially diluted 5-fold with DMSO for 4 serial dilutions to prepare 10, 2, 0.4, and 0.08 mM DMSO solutions.
2. Each test drug solution of the step 1. and DMSO were separately diluted 96-fold with a human liver microsome solution, and each dilution was dispensed and 80 μL of each dilution to microplates.
3. 10 μL of a substrate solution and 10 μL of a β-NADPH solution were added to the well of the step 2., followed by incubation at 37° C. for 10 min.
4. The reaction was terminated by the addition of 300 μL of methanol.
5. The reaction mixture was filtered, and LC-MSMS analysis was conducted.
3-4 Quantification and Calculation
The amount of 1′-hydroxybufuralol produced was quantified by LC-MSMS, and this amount was used as a metabolic activity of CYP2D6 for each well. The remaining activity of each sample was determined by comparison with the activity obtained from DMSO as a test drug. An IC50 value of CYP2D6 inhibition was determined from the test drug concentration and remaining activity. The IC50 value was calculated by linear interpolation between two points that span the remaining activity 50%. A larger value of IC50 of CYP2D6 inhibition means weaker CYP2D6 inhibition.
For orientation: Microsomes from liver hold many membrane-bound enzymes, among them those of drug oxidation.

The target in data set [2] is T2, human serotonin 1A receptor (h-5-HT1A) (Homo sapiens, UniProt P08908).
T2 sequence (P08908 1-422): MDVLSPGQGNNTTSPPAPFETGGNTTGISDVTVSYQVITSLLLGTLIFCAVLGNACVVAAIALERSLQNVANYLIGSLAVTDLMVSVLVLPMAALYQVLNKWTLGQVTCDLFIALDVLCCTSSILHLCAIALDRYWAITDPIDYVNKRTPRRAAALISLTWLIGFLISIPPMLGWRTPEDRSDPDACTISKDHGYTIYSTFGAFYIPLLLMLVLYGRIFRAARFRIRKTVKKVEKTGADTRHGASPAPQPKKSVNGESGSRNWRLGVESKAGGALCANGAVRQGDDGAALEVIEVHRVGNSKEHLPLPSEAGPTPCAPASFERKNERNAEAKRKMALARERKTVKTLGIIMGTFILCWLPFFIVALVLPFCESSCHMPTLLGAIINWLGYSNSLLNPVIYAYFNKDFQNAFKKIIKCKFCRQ
Protocol: The cells were cultured in F12 containing 10% FCS, 500 μg/ml Geneticin, and 100 U/ml penicillin-100 μg/ml streptomycin (all manufactured by Sigma-Aldrich Corp.) in a 5% CO2 incubator. […] Specifically, the cells were dissociated/collected using 50 mM Tris-HCl (pH=7.4). The resulting cells were homogenized using a Teflon (registered trademark) homogenizer and then centrifuged (48,000×g, 20 min, 4° C.). The pellet was resuspended in an appropriate amount of 50 mM Tris-HCl (pH=7.4) and stored at −80° C. until use. The amount of the protein in the membrane preparation was quantified using Dye Reagent Concentrate (manufactured by Bio-Rad Laboratories, Inc.) with bovine serum albumin (manufactured by Sigma-Aldrich Corp.) as a standard.
The reaction solution was reacted at room temperature for 30 minutes and then rapidly filtered by suction at a low pressure through glass fiber filter paper. The glass fiber filter paper was washed twice with 250 μl of 50 mM Tris-HCl (pH=7.4) and then added to a counting vial containing 4 ml of ACS-II (manufactured by Amersham Biosciences). Receptor binding radioactivity remaining on the filter paper was measured using a liquid scintillation counter.

Data set [3] deals with T3, human serotonin transporter (h-SERT) (Homo sapiens, UniProt P31645).
T3 construct: expressed in transfected cells; host or cells: CHO cells (h-SERT/CHO), Geneticin-selected
The experiment in a line: Screening test using [3H]citalopram binding for evaluating human serotonin reuptake inhibitory effect. To be noted: h-SERT/CHO membrane preparation, [3H]citalopram approximately 2 nM, room temperature 60 minutes; read-out: Test Example 1: h-SERT binding inhibition constant (Ki). The text has this:
CHO cells containing a human serotonin transporter (h-SERT) expressed therein (h-SERT/CHO) were used in the experiment.
1-2 Receptor Binding Experiment
A smaller value of the h-SERT binding inhibition constant Ki means a higher human serotonin reuptake inhibitory effect.

Data set [4] deals with T1, CYP2D6. The experiment in a line: Screening test of the rate of CYP2D6 contribution in human liver microsomal metabolism. To be noted: 1 mg/mL human liver microsomes, 1 μM test substance, 37° C.; for Test Example 4: Rate of CYP2D6 Contribution: with/without quinidine 4 μM. Set-up: key to Rate of CYP2D6 Contribution indeterminable due to high stability for human microsomal metabolism: —*^): The rate of CYP2D6 contribution was indeterminable in the present test due to high stability for human microsomal metabolism. The class given is in vitro ADME. The procedure: Screening Test of the Rate of CYP2D6 Contribution in Human Liver Microsomal Metabolism
0.2 mL of a 50 mM potassium phosphate buffer solution (pH 7.4) containing NADPH (final concentration: 3 mM, manufactured by Oriental Yeast Co., Ltd.), 1 mg/mL human liver microsomes (manufactured by XENOTECH, LLC), and a 1 μM test substance was heated on a water bath at 37° C. for metabolic reaction. After the reaction for 15 minutes or 30 minutes, methanol was added in a volume 3 times that of the reaction solution, and the mixture was stirred to terminate the reaction. This reaction solution was centrifuged for protein precipitation. Then, the supernatant was collected and subjected to LC-MS/MS analysis. The results were analyzed as follows:
The test substance was quantified, and time-dependent change in the amount of the substance remaining was logarithmically plotted. A metabolic rate was calculated from the slope.
The ratio of the metabolic rate obtained by the addition of quinidine (final concentration: 4 μM) to the reaction solution to the metabolic rate obtained without the addition was used as the rate of contribution of enzymes other than CYP2D6, and the rate of contribution obtained by subtracting this rate of contribution of other enzymes from the total was used as the rate of CYP2D6 contribution. Specifically, it was calculated according to the equation: Rate of contribution(%)={1−(metabolic rate [with quinidine]/metabolic rate[without quinidine])}×100. A smaller value of the rate of CYP2D6 contribution means smaller CYP2D6 contribution.

Data set [5] addresses T3, human serotonin transporter (h-SERT). Put plainly: Serotonin transporter function inhibition test using [3H]5-HT. The data set is classed as cell-based. The conditions noted are these: h-SERT/CHO cells, [3H]5-HT uptake approximately 10 nM, 37° C. 10 minutes; read-out: Test Example 5: h-SERT Function Inhibition Constant (Ki). As to the method:
1-1 Cells Used and Preparation of Cell Suspension
CHO cells containing a human serotonin transporter (h-SERT) expressed therein (h-SERT/CHO) were used in the experiment. […] The collected cells were suspended in a buffer solution containing 0.1 mM CaCl2 and 1 mM MgCl2 in PBS (hereinafter, referred to as PBSCM) and stored in ice until use.
Specifically, 149 μl of the cell suspension (10×10^4 cells/well) and 1 μl of a solution of a test drug dissolved in dimethyl sulfoxide were preincubated at 37° C. for 10 minutes.

As usually defined, the IC50 is the point on the concentration scale where inhibition reaches its midpoint. Usually Ki stands for a measure of affinity in units of concentration, obtained from inhibition or displacement.

The structures appear in SMILES notation.

T3 sequence (P31645 whole entry): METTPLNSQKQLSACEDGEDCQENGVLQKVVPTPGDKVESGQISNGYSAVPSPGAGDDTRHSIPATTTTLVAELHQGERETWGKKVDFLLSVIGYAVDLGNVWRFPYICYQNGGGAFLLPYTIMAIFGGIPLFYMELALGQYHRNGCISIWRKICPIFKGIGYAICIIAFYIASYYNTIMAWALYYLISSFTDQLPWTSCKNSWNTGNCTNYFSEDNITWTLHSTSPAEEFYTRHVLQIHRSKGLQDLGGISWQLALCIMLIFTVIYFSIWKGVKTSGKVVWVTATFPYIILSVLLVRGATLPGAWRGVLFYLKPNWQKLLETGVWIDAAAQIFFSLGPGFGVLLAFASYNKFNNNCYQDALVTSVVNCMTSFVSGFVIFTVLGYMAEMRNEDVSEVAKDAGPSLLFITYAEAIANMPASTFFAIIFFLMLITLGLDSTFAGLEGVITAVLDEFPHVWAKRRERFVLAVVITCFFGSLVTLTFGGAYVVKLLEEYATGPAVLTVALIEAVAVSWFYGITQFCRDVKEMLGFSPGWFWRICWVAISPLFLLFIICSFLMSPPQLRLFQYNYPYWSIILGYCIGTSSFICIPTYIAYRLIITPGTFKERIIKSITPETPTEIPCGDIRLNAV
T1 sequence (P10635 whole entry): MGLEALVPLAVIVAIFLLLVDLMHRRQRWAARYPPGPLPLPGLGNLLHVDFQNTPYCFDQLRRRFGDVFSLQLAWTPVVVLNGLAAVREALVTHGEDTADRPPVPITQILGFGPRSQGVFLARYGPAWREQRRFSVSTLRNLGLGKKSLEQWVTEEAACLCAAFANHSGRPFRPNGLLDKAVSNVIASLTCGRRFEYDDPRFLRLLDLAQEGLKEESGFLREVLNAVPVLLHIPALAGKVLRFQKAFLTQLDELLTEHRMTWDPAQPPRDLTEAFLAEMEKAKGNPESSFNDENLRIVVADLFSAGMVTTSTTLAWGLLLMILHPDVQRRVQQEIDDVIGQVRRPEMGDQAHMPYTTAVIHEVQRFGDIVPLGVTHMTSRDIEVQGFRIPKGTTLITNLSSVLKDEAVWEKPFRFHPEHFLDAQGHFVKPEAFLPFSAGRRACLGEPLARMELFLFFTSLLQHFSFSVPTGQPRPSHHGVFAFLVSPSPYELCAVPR

`COCCOc1cc(CC2CCN(CCc3ccc4c(c3)C(=O)CC4)CC2)ccc1C` [Example 8, 6-(2-{4-[3-(2-Methoxyethoxy)-4-methylbenzyl]piperidin-1-yl}ethyl)-2,3-dihydro-1H-inden-1-one]: the IC50 on CYP2D6 [1] stood at 31 µM. Besides, the figures for the Ki in data set [2] and in data set [3] were 0.0037 µM and 0.0028 µM, respectively. In addition, the “Test Example 4: Rate of CYP2D6 Contribution” value (shortened to “Test Example 4: Rate”) at CYP2D6 [4] stood at 9.6%.

With `O=C1CCCc2ccc(CCN3CCC(Cc4ccc(Br)c(OCCO)c4)CC3)cc21` [Example 12, 7-(2-{4-[4-Bromo-3-(2-hydroxyethoxy)benzyl]piperidin-1-yl}ethyl)-3,4-dihydronaphthalen-1(2H)-one], the IC50 at CYP2D6 [1] turned out to be 27.9 µM. The Ki stood at 0.023 µM in data set [2] and 0.0092 µM in data set [3]. The “Test Example 4: Rate” value at CYP2D6 [4] amounted to 17%.

`COCCOc1cc(CC2CCN(CCc3ccc4c(c3)C(=O)CCC4)CC2)ccc1C` [Example 9, 7-(2-{4-[3-(2-Methoxyethoxy)-4-methylbenzyl]piperidin-1-yl}ethyl)-3,4-dihydronaphthalen-1(2H)-one]: on CYP2D6 [1], the IC50 is 33.7 µM. Also, the values for the Ki in data set [2] and in data set [3] were 0.013 µM and 0.0031 µM, respectively. The “Test Example 4: Rate” value at CYP2D6 [4] worked out at 7.8%.

For `COCCOc1cc(Br)cc(CC2CCN(CCc3ccc4c(c3)C(=O)CC4)CC2)c1` [Example 15, 6-(2-{4-[3-Bromo-5-(2-methoxyethoxy)benzyl]piperidin-1-yl}ethyl)-2,3-dihydro-1H-inden-1-one], the IC50 at CYP2D6 [1] is 36.1 µM. Further, the Ki in data set [2] was found to be 0.035 µM; in data set [3], 0.0032 µM. In addition, the “Test Example 4: Rate” value at CYP2D6 [4] amounted to 11%.

As to `COCCOc1cc(Br)cc(CC2CCN(CCc3ccc4c(c3)C(=O)CCCO4)CC2)c1` [Example 18, 7-(2-{4-[3-Bromo-5-(2-methoxyethoxy)benzyl]piperidin-1-yl}ethyl)-3,4-dihydro-1-benzoxepin-5(2H)-one], the IC50 on CYP2D6 [1] is 27.5 µM. In addition, the Ki in data set [2] turned out to be 0.295 µM; in data set [3], 0.0062 µM. Further, at CYP2D6 [4], the “Test Example 4: Rate” value is 0%.

Turning to `O=C1CCc2ccc(CCN3CCC(Cc4ccc(Br)c(OCCO)c4)CC3)cc21` [Example 11, 6-(2-{4-[4-Bromo-3-(2-hydroxyethoxy)benzyl]piperidin-1-yl}ethyl)-2,3-dihydro-1H-inden-1-one], at CYP2D6 [1], the IC50 stood at 24.6 µM. In addition, the Ki worked out at 0.0038 µM in data set [2] and 0.0064 µM in data set [3]. Also, the “Rate of CYP2D6 Contribution indeterminable due to high stability for human microsomal metabolism” value on CYP2D6 [4] is reported as “—*^)”.

Take `COCCOc1cc(Br)cc(CC2CCN(CCc3ccc4c(c3)C(=O)CCO4)CC2)c1` [Example 17]: the inhibitory constant (Ki) is 0.018 µM in data set [5] and 0.004 µM in data set [3]. Besides, the IC50 on CYP2D6 [1] was 24.6 µM. The “Test Example 4: Rate” value on CYP2D6 [4] worked out at 14%.

Turning to `COCCOc1cc(CC2CCN(CCc3ccc4c(c3)C(=O)CCCO4)CC2)ccc1Br` [Example 6, 7-(2-{4-[4-Bromo-3-(2-methoxyethoxy)benzyl]piperidin-1-yl}ethyl)-3,4-dihydro-1-benzoxepin-5(2H)-one], the Ki came to 0.0016 µM in data set [5] and 0.0012 µM in data set [3]. Also, on CYP2D6 [1], the IC50 amounted to 24.7 µM. At CYP2D6 [4], the “Test Example 4: Rate” value came out at 4.2%.

In the case of `O=C1CCCOc2ccc(CCN3CCC(Cc4ccc(Br)c(OCCO)c4)CC3)cc21` [Example 14, 7-(2-{4-[4-Bromo-3-(2-hydroxyethoxy)benzyl]piperidin-1-yl}ethyl)-3,4-dihydro-1-benzoxepin-5(2H)-one], the concentration for half-maximal inhibition (IC50) at CYP2D6 [1] was determined as 34.8 µM. The values for the Ki in data set [2] and in data set [3] were 0.055 µM and 0.0085 µM, respectively. In addition, the “Rate of CYP2D6 Contribution indeterminable due to high stability for human microsomal metabolism” value on CYP2D6 [4] was “—*^)”.

Consider `COCCOc1cc(Cl)cc(CC2CCN(CCc3ccc4c(c3)C(=O)CCO4)CC2)c1` [Example 20, 6-(2-{4-[3-Chloro-5-(2-methoxyethoxy)benzyl]piperidin-1-yl}ethyl)-2,3-dihydro-4H-chromen-4-one], for which the IC50 at CYP2D6 [1] worked out at 23.4 µM. For the same molecule, the Ki in data set [2] came to 0.057 µM; in data set [3] it was 0.0024 µM. In addition, the “Test Example 4: Rate” value on CYP2D6 [4] is 24%.

Take `COCCOc1cc(CC2CCN(CCc3ccc4c(c3)C(=O)CCO4)CC2)ccc1C` [Example 10]: the Ki in data set [5] was determined as 0.044 µM; in data set [3], 0.0042 µM. Also, the IC50 on CYP2D6 [1] came to 21.5 µM. Moreover, the “Test Example 4: Rate” value on CYP2D6 [4] was 49%.

Take `COCCOc1cc(CC2CCN(CCc3ccc4c(c3)C(=O)CCC4)CC2)ccc1Br` [Example 2, 7-(2-{4-[4-Bromo-3-(2-methoxyethoxy)benzyl]piperidin-1-yl}ethyl)-3,4-dihydronaphthalen-1(2H)-one]: the values for the Ki in data set [5] and in data set [3] were 0.0016 µM and 0.0007 µM, respectively. On CYP2D6 [1], the IC50 was 12.8 µM. Further, the “Test Example 4: Rate” value on CYP2D6 [4] amounted to 12%.

As for `COCCOc1cc(Br)cc(CC2CCN(CCc3ccc4c(c3)C(=O)CCC4)CC2)c1` [Example 16, 7-(2-{4-[3-Bromo-5-(2-methoxyethoxy)benzyl]piperidin-1-yl}ethyl)-3,4-dihydronaphthalen-1(2H)-one], at CYP2D6 [1], the IC50 came to 26.3 µM. Moreover, the Ki in data set [2] is 0.027 µM; in data set [3] it was 0.0029 µM. Further, the “Test Example 4: Rate” value at CYP2D6 [4] is 9.2%.

As to `COCCOc1cc(CC2CCN(CCc3ccc4c(c3)C(=O)CCO4)CC2)ccc1Br.Cl` [Example 4, 6-(2-{4-[4-Bromo-3-(2-methoxyethoxy)benzyl]piperidin-1-yl}ethyl)-2,3-dihydro-4H-chromen-4-one hydrochloride], at CYP2D6 [1], the IC50 is 22.9 µM. The “Test Example 4: Rate” value on CYP2D6 [4] was found to be 0%.

Turning to `COCCOc1cc(Cl)cc(CC2CCN(CCc3ccc4c(c3)C(=O)CC4)CC2)c1` [Example 19, 6-(2-{4-[3-Chloro-5-(2-methoxyethoxy)benzyl]piperidin-1-yl}ethyl)-2,3-dihydro-1H-inden-1-one], at CYP2D6 [1], the IC50 is 20.4 µM. Further, the Ki in data set [2] came to 0.029 µM; in data set [3] it was 0.003 µM. Besides, the “Test Example 4: Rate” value on CYP2D6 [4] amounted to 16%.
